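Exposure lasted 48 hours, with cells grown in 96-well plates and compounds tested at five concentrations. TGI: concentration producing complete growth inhibition.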
Assays:
Experiment in all cases: NCI anticancer screen, dose series, 48 h
[1] = test system: SNB-78 CNS
[2] = test system: DLD-1 colon
[3] = test system: XF 498 CNS
[4] = test system: LXFL 529 NSCLC
[5] = test system: RXF-631 renal

O=C1c2ccccc2N2OC3(N4CCOCC4)CCCC3C12c1ccccc1 (stereo not given)
TGI [1]: > 100 µM
TGI [2]: > 100 µM
TGI [3]: > 100 µM
TGI [4]: > 100 µM

O=C(c1ccccc1)[C@H]1Nc2ccc(Cl)cc2[C@H]2CCC[C@@H]12
TGI [5]: > 100 µM
TGI [1]: > 100 µM
TGI [2]: > 100 µM
TGI [3]: 54.2 µM
TGI [4]: 64.9 µM

CN1CCOC(C(NC(=O)c2ccccc2)c2ccccc2)C1=O (stereo not given)
TGI [1]: > 100 µM
TGI [2]: > 100 µM

C1CCC(N=C2N(C3CCCCC3)C(=NC3CCCCC3)N2C2CCCCC2)CC1
TGI [2]: > 100 µM
TGI [3]: > 100 µM
TGI [4]: > 100 µM

CCCCCCCCOCC(COC(=O)CCCCCCC)OC(=O)CCCCCCC (stereo not given)
TGI [5]: > 100 µM
TGI [2]: > 100 µM
TGI [4]: > 100 µM

CC(C)(CN1CCCCC1)C(=O)/C=C/c1ccc(Br)cc1
TGI [1]: 31.6 µM
TGI [2]: 10.3 µM
TGI [3]: 6.21 µM
TGI [4]: 3.52 µM

O=C1CC(c2ccc(Cl)cc2)=Nc2ccccc2N1
TGI [5]: > 100 µM
TGI [1]: > 100 µM
TGI [2]: > 100 µM
TGI [4]: > 100 µM

COC(=O)[C@@]12OC[C@]34C([C@@H](O)C1O)[C@@]1(C)CC(=O)C(OC(=O)CC(C)C(F)(F)F)=C(C)C1C[C@H]3OC(=O)[C@H](O)[C@H]42 (stereo not given in full)
TGI [1]: > 62.5 µM
TGI [3]: 5.18 µM
TGI [4]: > 62.5 µM

NNC(=O)C(=O)NN=C(C(Cl)(Cl)CO)C(Cl)(Cl)CO
TGI [5]: 55.7 µM
TGI [1]: > 100 µM
TGI [2]: 57.4 µM
TGI [3]: > 100 µM
TGI [4]: > 100 µM

COc1ccc(-c2c(C3=NCCCN3)nnn2-c2ccccc2)cc1
TGI [1]: > 100 µM
TGI [2]: > 100 µM
TGI [3]: > 100 µM
TGI [4]: > 100 µM

C1CSCCSCCCS[C@@H]2CCCCC2SC1 (stereo not given in full)
TGI [1]: > 100 µM
TGI [2]: > 100 µM
TGI [4]: > 100 µM

CCOC(=O)/C(=C/c1ccccn1)C(=O)c1ccccc1
TGI [5]: 28.9 µM
TGI [1]: 38.9 µM
TGI [2]: 29.5 µM
TGI [3]: 30.3 µM
TGI [4]: 23.5 µM
